Where two headings read alike, the source gives them in different places.
Experiments:
[1] = human, in vivo, po, 1800 mg
Procedure: The capsule having the self-emulsifying composition of the present invention containing 80% by weight of EPA-E as its content was orally administered to human (12 cases, healthy adult males of 20 to 40 years old with a body weight of 55.0 to 77.0 kg and a BMI of 18.5 or more but less than 25.0) under fasting conditions to evaluate the change of blood EPA concentration. The self-emulsifying composition in an amount corresponding to 1800 mg of EPA-E was orally administered in single dose to each human who had been fasted since 10 hours or more before the administration by using 200 mL of water in the morning under fasting. The blood was collected 0.5, 1, 1.5, 2, 3, 4, 5, 6, 7, 8, 9, 10, 12, 15, 18, 24, 48 and 72 hours after the administration. Immediately after the collection, the blood was cooled on ice, and centrifuged at 2000×g at 4° C. for 10 minutes to separately collect the plasma. After having stored the resulting plasma at a temperature not higher than −20° C. in frozen state, concentration of the EPA in the plasma was measured by LC/MS/MS (method in which a sample is isolated by liquid chromatography, then subjected to mass spectrometry to conduct separation and measurement thereon). […]
In the calculation of each parameter, correction was made by subtracting the blood EPA concentration before the administration from the measured blood concentration.

[2] = human, in vivo, po, 3600 mg
Procedure: The capsule having the self-emulsifying composition of the present invention containing 80% by weight of EPA-E as its content was orally administered to human (12 cases, healthy adult males of 20 to 40 years old with a body weight of 55.0 to 77.0 kg and a BMI of 18.5 or more but less than 25.0) under fasting conditions to evaluate the change of blood EPA concentration. The self-emulsifying composition in an amount corresponding to 1800 mg of EPA-E was orally administered in single dose to each human who had been fasted since 10 hours or more before the administration by using 200 mL of water in the morning under fasting. The blood was collected 0.5, 1, 1.5, 2, 3, 4, 5, 6, 7, 8, 9, 10, 12, 15, 18, 24, 48 and 72 hours after the administration. […] After having stored the resulting plasma at a temperature not higher than −20° C. in frozen state, concentration of the EPA in the plasma was measured by LC/MS/MS (method in which a sample is isolated by liquid chromatography, then subjected to mass spectrometry to conduct separation and measurement thereon). […]
This test was conducted on 6 humans. […] In the calculation of each parameter, correction was made by subtracting the blood EPA concentration before the administration from the measured blood concentration.

CC/C=C\C/C=C\C/C=C\C/C=C\C/C=C\CCCC(=O)OCC [EPA-E stock solution, Ethyl eicosapentaenoate]
Cmax [1]: 4600 ng/mL
Cmax [2]: 3600 ng/mL

Reference: US11911480B2, “Self-emulsifying composition of ω-3 fatty acid” (priority 2015, dated 2024)
